Experimental data: patent US12492188B2, “1H-benzo[D]imidazole derivatives as TLR9 inhibitors for the treatment of fibrosis” (BRISTOL-MYERS SQUIBB COMPANY, priority 2020, dated 2025)
Read-outs that look alike come from different tables or passages of the source.

Legend:
Format in all cases: cell-based
[1] = molecular target: T1, human TLR8 (Homo sapiens, UniProt Q9NR97); experiment: TLR8 inhibition reporter assay (HEK-Blue cells, secreted embryonic alkaline phosphatase reporter); conditions: HEK-Blue cells overexpressing human TLR8, stimulated with R848 15.9 μM; read-out: TLR 8 IC50
T1 construct: host or cells: HEK-Blue cells (HEK293-derived reporter line)
T1 sequence (Q9NR97 27-1041): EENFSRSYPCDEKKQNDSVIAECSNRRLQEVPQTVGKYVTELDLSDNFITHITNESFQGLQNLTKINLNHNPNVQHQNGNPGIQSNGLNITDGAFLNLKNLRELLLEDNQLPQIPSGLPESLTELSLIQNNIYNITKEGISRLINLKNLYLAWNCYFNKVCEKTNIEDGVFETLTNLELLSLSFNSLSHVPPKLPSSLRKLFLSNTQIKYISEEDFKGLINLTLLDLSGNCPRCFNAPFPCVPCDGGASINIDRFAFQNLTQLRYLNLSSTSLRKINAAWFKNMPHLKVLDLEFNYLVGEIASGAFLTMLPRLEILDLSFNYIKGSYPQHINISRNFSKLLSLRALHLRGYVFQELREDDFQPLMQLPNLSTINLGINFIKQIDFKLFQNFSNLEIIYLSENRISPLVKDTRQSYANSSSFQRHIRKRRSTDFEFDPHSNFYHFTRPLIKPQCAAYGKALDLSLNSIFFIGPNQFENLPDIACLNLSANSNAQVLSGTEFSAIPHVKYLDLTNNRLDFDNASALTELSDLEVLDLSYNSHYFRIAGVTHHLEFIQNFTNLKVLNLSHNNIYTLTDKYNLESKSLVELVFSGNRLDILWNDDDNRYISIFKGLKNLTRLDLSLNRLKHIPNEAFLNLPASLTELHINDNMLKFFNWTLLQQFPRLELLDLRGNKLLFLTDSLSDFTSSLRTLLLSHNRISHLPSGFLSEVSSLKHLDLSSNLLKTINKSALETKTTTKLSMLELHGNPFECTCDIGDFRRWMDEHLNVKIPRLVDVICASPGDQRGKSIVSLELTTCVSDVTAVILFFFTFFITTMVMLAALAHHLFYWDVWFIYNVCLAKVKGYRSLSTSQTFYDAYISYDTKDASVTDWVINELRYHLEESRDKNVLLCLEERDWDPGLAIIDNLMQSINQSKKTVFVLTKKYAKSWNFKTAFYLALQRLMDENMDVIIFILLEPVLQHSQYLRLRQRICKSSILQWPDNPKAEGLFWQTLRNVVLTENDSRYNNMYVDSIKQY
Outline: (§1)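 Read-out is SEAP colour from HEK-Blue Detection medium after 22 h at 37 °C, converted to percent inhibition between agonist-plus-DMSO and reference-inhibitor wells. Receptor-overexpressing HEK-Blue cells received compound over 0.05 nM–50 μM for 30 min before agonist: gardiquimod 7.5 μM for TLR7, R848 15.9 μM for TLR8, ODN2006 5 nM for TLR9.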

[2] = molecular target: T2, human TLR7 (Homo sapiens, UniProt Q9NYK1); experiment: TLR7 inhibition reporter assay (HEK-Blue cells, secreted embryonic alkaline phosphatase reporter); conditions: HEK-Blue cells overexpressing human TLR7, stimulated with gardiquimod 7.5 μM; read-out: TLR 7 IC50
T2 construct: host or cells: HEK-Blue cells (HEK293-derived reporter line)
T2 sequence (Q9NYK1 27-1049): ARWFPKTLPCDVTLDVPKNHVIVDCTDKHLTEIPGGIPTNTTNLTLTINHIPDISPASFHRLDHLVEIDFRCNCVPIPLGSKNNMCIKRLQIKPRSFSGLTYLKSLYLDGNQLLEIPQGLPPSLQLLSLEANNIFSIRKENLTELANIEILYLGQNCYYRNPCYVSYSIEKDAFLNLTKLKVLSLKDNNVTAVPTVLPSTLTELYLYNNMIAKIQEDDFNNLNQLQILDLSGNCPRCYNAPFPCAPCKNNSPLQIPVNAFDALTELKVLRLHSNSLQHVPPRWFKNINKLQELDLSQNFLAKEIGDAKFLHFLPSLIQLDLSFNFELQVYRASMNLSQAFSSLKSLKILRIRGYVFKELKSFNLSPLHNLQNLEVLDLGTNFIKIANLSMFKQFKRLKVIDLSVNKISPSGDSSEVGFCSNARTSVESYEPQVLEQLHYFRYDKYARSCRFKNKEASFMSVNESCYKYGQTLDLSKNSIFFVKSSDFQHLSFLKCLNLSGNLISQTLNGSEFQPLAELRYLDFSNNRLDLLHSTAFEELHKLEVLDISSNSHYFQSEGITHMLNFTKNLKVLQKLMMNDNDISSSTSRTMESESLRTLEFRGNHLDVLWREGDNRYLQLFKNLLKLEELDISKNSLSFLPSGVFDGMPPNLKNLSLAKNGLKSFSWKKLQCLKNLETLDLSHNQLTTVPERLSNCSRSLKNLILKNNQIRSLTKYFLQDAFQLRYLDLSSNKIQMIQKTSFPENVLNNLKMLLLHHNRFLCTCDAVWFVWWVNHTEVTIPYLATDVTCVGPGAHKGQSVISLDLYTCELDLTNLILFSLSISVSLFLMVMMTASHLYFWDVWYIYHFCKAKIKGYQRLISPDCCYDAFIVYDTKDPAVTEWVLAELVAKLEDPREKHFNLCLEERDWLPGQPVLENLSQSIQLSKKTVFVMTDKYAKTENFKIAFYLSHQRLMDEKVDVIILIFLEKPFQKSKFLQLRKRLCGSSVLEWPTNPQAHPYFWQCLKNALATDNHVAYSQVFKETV
Outline: as §1

[3] = molecular target: T3, human TLR9 (Homo sapiens, UniProt Q9NR96); experiment: TLR9 inhibition reporter assay (HEK-Blue cells, secreted embryonic alkaline phosphatase reporter)
T3 construct: host or cells: HEK-Blue cells (HEK293-derived reporter line)
T3 sequence (Q9NR96 26-1032): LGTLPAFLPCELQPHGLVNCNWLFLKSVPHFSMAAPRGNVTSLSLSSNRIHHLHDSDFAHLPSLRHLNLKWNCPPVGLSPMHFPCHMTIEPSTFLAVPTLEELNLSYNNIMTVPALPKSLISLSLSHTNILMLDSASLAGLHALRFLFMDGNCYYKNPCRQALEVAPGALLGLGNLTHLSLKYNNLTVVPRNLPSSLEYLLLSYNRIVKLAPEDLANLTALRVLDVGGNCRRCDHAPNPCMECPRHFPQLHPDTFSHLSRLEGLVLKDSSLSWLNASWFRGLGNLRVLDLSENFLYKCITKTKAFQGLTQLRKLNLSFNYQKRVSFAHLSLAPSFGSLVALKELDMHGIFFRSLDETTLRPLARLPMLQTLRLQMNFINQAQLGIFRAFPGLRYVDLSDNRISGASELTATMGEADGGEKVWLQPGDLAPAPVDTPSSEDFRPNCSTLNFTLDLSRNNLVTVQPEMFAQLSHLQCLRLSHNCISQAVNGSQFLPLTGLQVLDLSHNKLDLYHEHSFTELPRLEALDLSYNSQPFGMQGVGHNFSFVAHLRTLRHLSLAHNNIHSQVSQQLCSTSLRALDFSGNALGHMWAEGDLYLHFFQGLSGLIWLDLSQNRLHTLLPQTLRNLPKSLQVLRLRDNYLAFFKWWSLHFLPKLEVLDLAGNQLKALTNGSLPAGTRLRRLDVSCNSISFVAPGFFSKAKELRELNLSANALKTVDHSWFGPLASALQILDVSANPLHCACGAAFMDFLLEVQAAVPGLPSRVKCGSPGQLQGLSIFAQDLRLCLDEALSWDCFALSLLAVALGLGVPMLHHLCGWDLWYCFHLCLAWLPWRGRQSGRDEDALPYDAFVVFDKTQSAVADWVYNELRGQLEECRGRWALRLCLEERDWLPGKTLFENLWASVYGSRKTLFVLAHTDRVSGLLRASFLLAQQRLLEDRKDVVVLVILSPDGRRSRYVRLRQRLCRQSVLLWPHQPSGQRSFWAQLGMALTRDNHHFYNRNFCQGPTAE
Outline: as §1

[4] = HEK-Blue cells overexpressing human TLR9, stimulated with ODN2006 5 nM, 22 hour incubation, reporter readout
[5] = HEK-Blue cells overexpressing human TLR9, stimulated with ODN2006 5 nM, read-out: TLR 9 IC50
[6] = HEK-Blue human TLR9 reporter cells

| SMILES | IC50 [1] [µM] | IC50 [2] [µM] | IC50 [3, 4] [µM] | IC50 [3, 5] [µM] | IC50 [3, 6] [µM] | IC50 [3] [µM] |
| --- | --- | --- | --- | --- | --- | --- |
| CCOP(=O)(OCC)c1ccc(-c2nc3c(C)cc(C4CCN(C5CCN(C6CC6)CC5)CC4)cc3n2C)cc1 [Example 422, diethyl(4-(6-(1′-cyclopropyl-[1,4′-bipiperidin]-4-yl)-1,4-dimethyl-1H-benzo[d]imidazol-2-yl)phenyl)phosphonate] | 27.3 | 4 | 0.18 | 0.18 |  |  |
| Cc1cc(C2CCN(C3CC4CCC(C3)N4C(C)C)CC2)cc2[nH]c(-c3ccc(S(C)(=O)=O)cc3)nc12 (stereo not shown) [Example 332, 6-(1-(8-isopropyl-8-azabicyclo[3.2.1]octan-3-yl)piperidin-4-yl)-4-methyl-2-(4-(methylsulfonyl)phenyl)-1H-benzo[d]imidazole] | > 50 | > 50 |  | 0.172 | 0.17 |  |
| COCCN1C2CCC1CC(N1CCC(c3ccc4c(nc(-c5ccc(S(C)(=O)=O)cc5)n4C)c3F)CC1)C2 (single isomer, unassigned) [Example 199, 4-fluoro-5-(1-(8-(2-methoxyethyl)-8-azabicyclo[3.2.1]octan-3-yl)piperidin-4-yl)-1-methyl-2-(4-(methylsulfonyl)phenyl)-1H-benzo[d]imidazole] | > 50 | 25.6 |  | 0.075 |  | 0.075 |
| Cc1cc(C2CCN(C3CC4CCC(C3)N4C3CCC3)CC2)cc2[nH]c(-c3ccc(S(C)(=O)=O)cc3)nc12 (stereo not shown) [Example 334, 6-(1-(8-cyclobutyl-8-azabicyclo[3.2.1]octan-3-yl)piperidin-4-yl)-4-methyl-2-(4-(methylsulfonyl)phenyl)-1H-benzo[d]imidazole] | > 50 | > 50 |  | 0.296 | 0.3 |  |
| Cn1c(-c2ccc(S(C)(=O)=O)cc2)nc2cc(C3CCN(C4CC5CCC(C4)N5C4COC4)CC3)cc(F)c21 (single isomer, unassigned) [Example 214, 7-fluoro-1-methyl-2-(4-(methylsulfonyl)phenyl)-5-(1-(8-(oxetan-3-yl)-8-azabicyclo[3.2.1]octan-3-yl)piperidin-4-yl)-1H-benzo[d]imidazole] | > 50 | > 50 |  | 4.66 |  | 4.7 |
| Cn1c(-c2ccc(S(C)(=O)=O)cc2)nc2c(F)cc(C3CCN(C4CCCN(C5CCOCC5)CC4)CC3)cc21 (stereo not shown) [Example 300, 4-fluoro-1-methyl-2-(4-(methylsulfonyl)phenyl)-6-(1-(1-(tetrahydro-2H-pyran-4-yl)azepan-4-yl)piperidin-4-yl)-1H-benzo[d]imidazole] | > 50 | 2.9 |  | 0.02 | 0.02 |  |
| Cn1c(-c2ccc(S(C)(=O)=O)cc2)nc2ccc(C3CCN(C4CCN(C5CCC5)CC4)CC3)c(F)c21 [Example 262, 6-(1′-cyclobutyl-[1,4′-bipiperidin]-4-yl)-7-fluoro-1-methyl-2-(4-(methylsulfonyl)phenyl)-1H-benzo[d]imidazole] | > 50 | 14.1 |  | 0.171 |  | 0.17 |
| CC(C)N1C2CCC1CC(N1CCC(c3ccc4nc(-c5ccc(S(C)(=O)=O)cc5)n(C)c4c3F)CC1)C2 (single isomer, unassigned) [Example 103, 7-fluoro-6-(1-(8-isopropyl-8-azabicyclo[3.2.1]octan-3-yl)piperidin-4-yl)-1-methyl-2-(4-(methylsulfonyl)phenyl)-1H-benzo[d]imidazole] | > 50 | 25.9 | 0.054 |  |  |  |
| COCCN1CCC(N2CCC(c3ccc4nc(-c5ccc(S(C)(=O)=O)cc5)n(C)c4c3F)CC2)CC1 [Example 265, 7-fluoro-6-(1′-(2-methoxyethyl)-[1,4′-bipiperidin]-4-yl)-1-methyl-2-(4-(methylsulfonyl)phenyl)-1H-benzo[d]imidazole] | > 50 | 7.6 |  | 1.04 |  | 1 |
| CS(=O)(=O)c1ccc(-c2nc3ccc(C4CCN(C5CCN(C6CC6)CC5)CC4)c(F)c3[nH]2)cc1 [Example 178, 6-(1′-cyclopropyl-[1,4′-bipiperidin]-4-yl)-7-fluoro-2-(4-(methylsulfonyl)phenyl)-1H-benzo[d]imidazole] | > 50 | > 50 |  | 0.238 |  | 0.24 |
| COc1ccc(-c2nc3c(C)cc(C4CCN(C5CC6(C5)CN(CC(C)C)C6)CC4)cc3n2C)cc1OC [Example 47, 2-(3,4-dimethoxyphenyl)-6-(1-(2-isobutyl-2-azaspiro[3.3]heptan-6-yl)piperidin-4-yl)-1,4-dimethyl-1H-benzo[d]imidazole tris(2,2,2-trifluoroacetate)] | > 50 | 7.2 | 0.013 | 0.013 |  |  |
